Data: US7709526B2, “Use of cyclolignans and new cyclolignans” (Biovitrum AB, priority 2001, dated 2010)
Like-named read-outs stand apart in the source and are kept apart here.

Key:
microtubules = conditions: cell free systems; cited from earlier work
[1] = target: insulin receptor tyrosine kinase (Homo sapiens, UniProt P06213); test: Interference with insulin receptor tyrosine kinase; format: cell-based
[2] = target: receptor of epidermal growth factor (Homo sapiens, UniProt P00533); test: Tyrosine phosphorylation of epidermal growth factor receptor; format: cell-based
FM55 melanoma cells = test: Cell viability (XTT), FM55; format: cell-based, human; conditions: Homo sapiens
Protocol: (§1) Cell proliferation kit II (Roche Inc.) is based on calorimetric change of the yellow tetrazolium salt XTT in orange formazan dye by the respiratory chain of viable cells (Roehm, N W, et al., J Immunol Methods 142:257-265, 1991). Cells seeded at a concentration of 5000/well in 100 μl medium in a 96-well plate were treated with different drugs in the given concentration. After 24 or 48 h the cells were incubated, according to the manufacturer's protocol, with XTT labelling mixture. After 4 h the formazan dye is quantified using a scanning multiwell spectrophotometer with a 495-nm filter. The absorbance is directly correlated with number of viable cells. The standard absorbance curve was drawn by means of untreated cells seeded at a concentration of from 1000 to 10 000 cells/well with an increasing rate of 1000 cells/well. All standards and experiments were performed in triplicates.
(§2) 5 different types of cell lines were seeded in 96-well plates (medium volume in a well was 100 μl), at a concentration of 10,000 cells/cm^2 in Minimal Essential Medium supplemented with fetal calf serum. When the cells had reached a concentration of 65,000 cells/cm^2, they were treated with different doses of podophyllotoxin and deoxypodophyllotoxin for 48 h. Cell viability was then assayed (see above). IC50 values for each inhibitor and cell line, calculated as the concentration, resulting in a 50% decrease in cell survival, are shown below. The results are based on 4 different experiments.
FM55 melanoma cells were cultured in the same way as described in Experiment 3 and were treated with different doses of podophyllotoxin analogues as described in Experiment 3.

malignant cells = test: Cell death in malignant cells; format: cell-based
SK-MEL-28 melanoma cells = test: Cell viability (XTT), SK-MEL-28; format: cell-based, human; conditions: Homo sapiens, 48 h
Protocol: as §1
as §2, with “IC50 values for each inhibitor and cell line, calculated as the concentration, resulting in a 50% decrease in cell survival, are shown below. The results are based on 4 different experiments.” left out

[3] = test system: receptor of fibroblast growth factor; test: Tyrosine phosphorylation of fibroblast growth factor receptor; format: cell-based
rats = conditions: cited from earlier work
[4] = test system: K562/Vcr30 chronic myeloid leukemia cells (cytostatic-resistant); test: Viability of leukemia cells, K562/Vcr30; format: cell-based, human; conditions: Homo sapiens; K562/Vcr30, 72 h; read-out: IC50 for viability of leukemia cell lines
Protocol: (§3) The human chronic myeloid leukemia K562/S and K562/Vcr30 lines and the acute myeloid leukemia cell lines HL60/0 and HL60/Nov were obtained from ATCC. The K562/S and HL60/0 are wild type (non-resistant) cells, whereas K562/Vcr30 and HL60/Nov are cytostatic-resistant sublines. All leukemia cell lines were cultured in RPMI 1640 medium supplemented with 10% fetal bovine serum and with 2 mM glutamine, 1% benzyl-penicillin and streptomycin. The cells were grown in tissue culture flasks maintained at 95% air/5% CO2 atmosphere at 37° C. in a humidified incubator. For the experiments 25,000 cells were cultured in 60-mm plastic dishes or 96-well plastic plates. The experiments on leukemia cells were performed in collaboration with Associate professor Sigurd Vitols, Department of Pharmacology, Karolinska Hospital (Stockholm, Sweden).
as §1
(§4) The leukemia cell lines K562/S, K562/Vcr 30, HL60/0 and HL60/Nov were proven to express the IGF-1R. This was assayed by Western blotting analysis, as described in Methods and Experiment 1 and 2. The 4 leukemia cell lines were seeded in 96-well plates (medium volume in a well was 100 μl), in RPMI40 medium supplemented with fetal calf serum. After 24 h podophyllotoxin, deoxypodophyllotoxin and other derivatives were added at different concentrations for 72 h. Cell viability was then assayed (see above). IC50 values for each inhibitor and cell lines are shown below (Table 5). The results are based on 3 different experiments.

[5] = test system: receptor of platelet-derived growth factor; test: Tyrosine phosphorylation of platelet-derived growth factor receptor; format: cell-based
[6] = test system: K562/S chronic myeloid leukemia cells; test: Viability of leukemia cells, K562/S; format: cell-based, human; conditions: Homo sapiens, 72 h, read-out: IC50 for viability of leukemia cell lines
Protocol: as §3, §1, §4

BE melanoma cells = test: Cell viability (XTT), BE; format: cell-based; conditions: Homo sapiens, 48 h
Protocol: as §1
as §2, with “IC50 values for each inhibitor and cell line, calculated as the concentration, resulting in a 50% decrease in cell survival, are shown below. The results are based on 4 different experiments.” left out

[7] = test system: cells devoid of insulin-like growth factor-1 receptors; test: Cell death in cells devoid of IGF-1R; format: cell-based
[8] = test system: PC-3 prostate cancer cells; test: Cell viability (XTT), PC-3; format: cell-based; conditions: Homo sapiens, 48 h
Protocol: as §1
as §2, with “IC50 values for each inhibitor and cell line, calculated as the concentration, resulting in a 50% decrease in cell survival, are shown below. The results are based on 4 different experiments.” left out

[9] = test system: HL60/Nov acute myeloid leukemia cells (cytostatic-resistant); test: Viability of leukemia cells, HL60/Nov; format: cell-based, human; conditions: Homo sapiens, HL-60, 72 h, read-out: IC50 for viability of leukemia cell lines
Protocol: as §3, §1, §4

insulin receptor tyrosine kinase, sequence (P06213 28-1382): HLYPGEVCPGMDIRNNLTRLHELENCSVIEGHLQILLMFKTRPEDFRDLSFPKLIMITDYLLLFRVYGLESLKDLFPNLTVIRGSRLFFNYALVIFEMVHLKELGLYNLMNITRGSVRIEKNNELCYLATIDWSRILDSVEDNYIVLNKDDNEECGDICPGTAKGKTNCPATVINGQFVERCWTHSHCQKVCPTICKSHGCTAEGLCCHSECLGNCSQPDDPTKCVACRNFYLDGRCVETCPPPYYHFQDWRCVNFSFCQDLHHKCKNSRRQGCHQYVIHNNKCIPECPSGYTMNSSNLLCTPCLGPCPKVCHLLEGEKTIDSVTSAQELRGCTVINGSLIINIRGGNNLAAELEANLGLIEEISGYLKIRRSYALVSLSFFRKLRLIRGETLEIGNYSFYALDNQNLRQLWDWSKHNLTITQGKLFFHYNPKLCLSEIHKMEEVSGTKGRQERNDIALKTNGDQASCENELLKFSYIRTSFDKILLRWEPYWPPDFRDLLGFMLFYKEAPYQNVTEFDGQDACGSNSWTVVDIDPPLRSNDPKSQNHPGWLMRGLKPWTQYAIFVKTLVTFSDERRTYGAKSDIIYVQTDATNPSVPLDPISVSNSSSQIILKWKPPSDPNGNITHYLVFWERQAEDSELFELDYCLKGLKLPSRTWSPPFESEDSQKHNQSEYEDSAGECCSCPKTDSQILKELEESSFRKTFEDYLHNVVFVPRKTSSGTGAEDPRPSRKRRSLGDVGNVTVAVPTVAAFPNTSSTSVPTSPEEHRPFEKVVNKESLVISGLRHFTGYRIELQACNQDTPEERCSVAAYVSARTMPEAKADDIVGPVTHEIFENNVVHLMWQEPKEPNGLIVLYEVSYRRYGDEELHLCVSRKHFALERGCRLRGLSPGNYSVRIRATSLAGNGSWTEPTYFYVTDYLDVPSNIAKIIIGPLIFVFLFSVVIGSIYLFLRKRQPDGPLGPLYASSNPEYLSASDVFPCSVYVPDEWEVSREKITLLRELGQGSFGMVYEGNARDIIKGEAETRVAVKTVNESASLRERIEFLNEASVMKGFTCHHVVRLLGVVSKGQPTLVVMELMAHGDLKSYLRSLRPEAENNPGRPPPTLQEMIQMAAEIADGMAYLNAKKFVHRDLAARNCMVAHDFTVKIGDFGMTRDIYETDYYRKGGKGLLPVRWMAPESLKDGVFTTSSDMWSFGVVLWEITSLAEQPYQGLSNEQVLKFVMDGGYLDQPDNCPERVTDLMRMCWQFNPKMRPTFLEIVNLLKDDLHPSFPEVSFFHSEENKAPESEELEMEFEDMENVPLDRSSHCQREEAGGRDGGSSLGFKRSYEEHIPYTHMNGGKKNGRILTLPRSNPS
receptor of epidermal growth factor, sequence (P00533 25-1210): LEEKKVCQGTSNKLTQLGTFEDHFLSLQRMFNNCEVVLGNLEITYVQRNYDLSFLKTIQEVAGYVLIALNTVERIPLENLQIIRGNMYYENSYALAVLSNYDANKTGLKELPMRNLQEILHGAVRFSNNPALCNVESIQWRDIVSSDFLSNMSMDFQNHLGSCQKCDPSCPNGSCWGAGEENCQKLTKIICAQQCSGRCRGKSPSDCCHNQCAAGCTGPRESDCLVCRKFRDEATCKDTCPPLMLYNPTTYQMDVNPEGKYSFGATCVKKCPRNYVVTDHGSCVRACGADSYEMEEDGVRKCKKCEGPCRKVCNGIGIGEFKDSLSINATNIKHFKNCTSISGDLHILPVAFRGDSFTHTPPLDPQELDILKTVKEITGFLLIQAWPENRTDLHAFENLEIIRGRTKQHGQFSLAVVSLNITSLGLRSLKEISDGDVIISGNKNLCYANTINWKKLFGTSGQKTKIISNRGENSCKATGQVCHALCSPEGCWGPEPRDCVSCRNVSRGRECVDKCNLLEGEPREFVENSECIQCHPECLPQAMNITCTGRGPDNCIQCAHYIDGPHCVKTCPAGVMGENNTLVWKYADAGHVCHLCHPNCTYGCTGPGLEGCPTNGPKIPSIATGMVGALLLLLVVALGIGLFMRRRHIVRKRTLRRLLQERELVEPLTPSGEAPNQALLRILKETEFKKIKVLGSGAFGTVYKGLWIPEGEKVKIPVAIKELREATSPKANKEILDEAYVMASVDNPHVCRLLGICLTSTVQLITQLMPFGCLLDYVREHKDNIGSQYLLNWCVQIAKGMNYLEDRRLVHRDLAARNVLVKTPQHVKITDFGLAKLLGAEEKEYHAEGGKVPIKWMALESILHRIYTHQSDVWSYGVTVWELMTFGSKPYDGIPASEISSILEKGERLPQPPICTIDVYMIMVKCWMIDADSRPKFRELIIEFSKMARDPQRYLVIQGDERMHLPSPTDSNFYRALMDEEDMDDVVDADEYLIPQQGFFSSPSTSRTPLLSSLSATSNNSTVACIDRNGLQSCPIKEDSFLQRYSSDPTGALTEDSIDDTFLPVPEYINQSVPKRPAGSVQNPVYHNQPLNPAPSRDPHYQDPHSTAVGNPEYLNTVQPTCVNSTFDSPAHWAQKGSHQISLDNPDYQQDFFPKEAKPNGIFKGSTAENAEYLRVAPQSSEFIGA

COc1cc([C@@H]2c3cc4c(cc3[C@H](O)[C@H]3COC(=O)[C@H]23)OCO4)cc(OC)c1OC [Podophyllotoxin, podophyllotoxin]
effect on microtubules (microtubules): required μM concentrations | interference with the insulin receptor tyrosine kinase [1]: do not interfere | interference with tyrosine phosphorylation of the receptor of epidermal growth factor [2]: Neither do they interfere | IC50 (FM55 melanoma cells; FM55, Experiment 4 (Table 4), read-out: IC50 for viability of FM55 cells): 50 nM | IC50 (FM55 melanoma cells; FM55, melanoma, 48 h (Table 3), read-out: IC50 for cell viability): 40 nM | cell death in malignant cells (in words) (malignant cells): extensive cell death | IC50 (SK-MEL-28 melanoma cells): 50 nM | interference with tyrosine phosphorylation of the receptor of fibroblast growth factor [3]: Neither do they interfere | LD50 in rats (rats): 14 mg/kg | IC50 [4]: 7 nM | interference with tyrosine phosphorylation of the receptor of platelet-derived growth factor [5]: Neither do they interfere | IC50 [6]: 4 nM | IC50 (BE melanoma cells): 50 nM | response of cells devoid of IGF-1R (in words) [7]: resistant | IC50 [8]: 60 nM | IC50 [9]: 2 nM
